Molecules are shown by their SMILES.

Turning to `*=Nc1ccc(C(C)(C)c2ccc(C(C)(C)c3ccc(/N=C4/OC(=O)c5ccc(Oc6ccc7c(c6)C(=O)OC7=*)cc54)cc3)cc2)cc1` (repeat unit), the glass transition temperature was found to be 249.00 °C.
The result for `*C(=O)Nc1ccc(C(c2ccc(NC(=O)c3ccc4c(c3)C(=O)N(c3ccc(-c5ccc(N6C(=O)c7ccc(*)cc7C6=O)c(OC)c5)cc3OC)C4=O)cc2)(C(F)(F)F)C(F)(F)F)cc1` (repeat unit) reads 250.00 °C; that for `*C(=O)c1ccc2c(c1)C(=O)N(c1ccc(-c3cc(C(C)(C)C)c(Oc4ccc(N5C(=O)c6ccc(*)cc6C5=O)cc4)c(C(C)(C)C)c3)cc1)C2=O` (repeat unit), 347.50 °C; that for `*C(=O)c1ccc2c(c1)C(=O)N(c1ccc(-c3cc(C(C)(C)C)c(Oc4ccc(N5C(=O)c6ccc(*)cc6C5=O)cc4C(F)(F)F)c(C(C)(C)C)c3)cc1)C2=O` (repeat unit), 362.00 °C.
`*C(=O)c1ccc2c(c1)C(=O)N(c1ccc(C(C)(C)c3cccc(C(C)(C)c4ccc(N5C(=O)c6ccc(*)cc6C5=O)cc4)c3)cc1)C2=O` (repeat unit) displayed a glass transition temperature of 316.50 °C.
As for `*C(=O)c1ccc2c(c1)C(=O)N(c1ccc3c(c1)Cc1cc(N4C(=O)c5ccc(*)cc5C4=O)ccc1-3)C2=O` (repeat unit), the glass transition temperature is 341.50 °C.
`*C(=O)c1ccc2c(c1)C(=O)N(c1cccc(C(O)c3cccc(N4C(=O)c5ccc(*)cc5C4=O)c3)c1)C2=O` (repeat unit) gave a glass transition temperature of 292.00 °C.
The result for `*C(=O)c1ccc2c(c1)C(=O)N(c1cccc(C(c3ccccc3)(c3cccc(N4C(=O)c5ccc(*)cc5C4=O)c3)C(F)(F)F)c1)C2=O` (repeat unit) reads 311.00 °C; that for `*C(=O)c1ccc2c(c1)C(=O)N(c1cccc(Nc3nc(Nc4cccc(N5C(=O)c6ccc(*)cc6C5=O)c4)nc(N(c4ccccc4)c4ccccc4)n3)c1)C2=O` (repeat unit), 290.00 °C.
`*C(=O)c1ccc2c(c1)C(=O)N(c1cccc(Nc3ncnc(Nc4cccc(N5C(=O)c6ccc(*)cc6C5=O)c4)n3)c1)C2=O` (repeat unit) registered a glass transition temperature of 290.00 °C.
To `*CCCCCC(=O)Oc1ccc(C(C)(C)c2ccc(OC(=O)c3ccc4c(c3)C(=O)N(*)C4=O)cc2)cc1` (repeat unit) belongs 110.00 °C; to `*CCCCCCN1C(=O)C(=O)N(c2ccc(Cc3ccc(N4C(=O)C(=O)N(*)C4=O)cc3)cc2)C1=O` (repeat unit), 158.00 °C.
Consider `*CCCCOC(=O)Nc1ccc(-c2ccc(NC(=O)OCCCCn3c4ccccc4c4cc(/C=C(\C#N)C(=O)OCCCCCCOC(=O)/C(C#N)=C/c5ccc6c(c5)c5ccccc5n6*)ccc43)c(C)c2)cc1C` (repeat unit), for which the glass transition temperature came to 113.00 °C.
Regarding `*CCN(CCOC(=O)Nc1ccc(-c2ccc(NC(=O)O*)c(OC)c2)cc1OC)c1ccc(/N=N/c2ccc([N+](=O)[O-])cc2)cc1` (repeat unit), the glass transition temperature was 140.00 °C.
As for `*CNC(=O)OC(c1ccco1)C(OC(=O)NCc1ccc(C(C)(C)c2ccc(*)o2)o1)c1ccco1` (repeat unit), the glass transition temperature was 45.00 °C.
The molecule `*Cc1ccc(C(C)(C)c2ccc(Cn3c(=O)c4cc5c(=O)n(*)c(=O)c5cc4c3=O)o2)o1` (repeat unit) gave a glass transition temperature of 138.00 °C.
`*Nc1ccc(C(C)(C)c2ccc(NC(=O)c3cc(C(*)=O)cc(S(=O)(=O)c4ccccc4)c3)cc2)cc1` (repeat unit) had a glass transition temperature of 287.00 °C.
As for `*Nc1ccc(C(C)(C)c2cccc(C(C)(C)c3ccc(Nc4ccc(C(=O)c5ccc(C(=O)c6ccc(*)cc6)cc5)cc4)cc3)c2)cc1` (repeat unit), the glass transition temperature is 177.00 °C.
The result for `*Oc1ccc(C(C#N)(c2ccccc2)c2ccc(OC(*)=O)cc2)cc1` (repeat unit) reads 138.00 °C; that for `*Oc1ccc(C(C)(C)c2ccc(C(C)(C)c3ccc(OC(*)=O)cc3)cc2)cc1` (repeat unit), 154.00 °C; that for `*Oc1ccc(C(C)(C)c2ccc(OC(*)=O)c(C)c2)cc1C` (repeat unit), 124.00 °C.
For `*Oc1ccc(C(C)(C)c2ccc(OC(=O)C3CCC(C(*)=O)CC3)cc2)cc1` (repeat unit), the glass transition temperature was determined as 150.00 °C.
As for `*Oc1ccc(C(C)(C)c2ccc(OC(=O)CCCCC(*)=O)cc2)cc1` (repeat unit), the glass transition temperature is 54.00 °C.
`*Oc1ccc(C(C)(C)c2ccc(OC(=O)CCCCCCCCC(*)=O)cc2)cc1` (repeat unit): the glass transition temperature was determined as 14.2 °C.
`*Oc1ccc(C(C)(C)c2ccc(OC(=O)CN(CC(*)=O)c3ccc(/N=N/c4ccc([N+](=O)[O-])cc4)cc3)cc2)cc1` (repeat unit) had a glass transition temperature of 152.00 °C.
The molecule `*Oc1ccc(C(C)(C)c2ccc(OC(=O)OCC3CCC(COC(*)=O)CC3)cc2)cc1` (repeat unit) displayed a glass transition temperature of 90.40 °C.
As to `*Oc1ccc(C(C)(C)c2ccc(OC(=O)OCCN(CCOC(*)=O)c3ccccc3)cc2)cc1` (repeat unit), the glass transition temperature is 70.00 °C.
In turn, `*Oc1ccc(C(C)(C)c2ccc(OC(=O)c3ccc(CC(*)=O)cc3)cc2)cc1` (repeat unit) showed a glass transition temperature of 85.00 °C.
Regarding `*Oc1ccc(C(C)(CC)c2ccc(OC(=O)OC3C(C)(C)C(OC(*)=O)C3(C)C)cc2)cc1` (repeat unit), the glass transition temperature amounted to 124.00 °C.
For `*Oc1ccc(C(C)(CCC#N)c2ccc(OC(*)=O)cc2)cc1` (repeat unit), the glass transition temperature is 150.00 °C.
On to `*Oc1ccc(C(C)(c2ccccc2)c2ccc(OC(=O)OC3C(C)(C)C(OC(*)=O)C3(C)C)cc2)cc1` (repeat unit), for which the glass transition temperature is 149.00 °C.
For `*Oc1ccc(C(C)c2ccc(OC(*)=O)cc2)cc1` (repeat unit), the glass transition temperature stood at 130.00 °C.
To `*Oc1ccc(C(CC)c2ccc(OC(*)=O)cc2)cc1` (repeat unit) belongs 128.00 °C.
The result for `*Oc1ccc(C2(c3ccc(OC(*)=O)c(C)c3)CC3CCC2C3)cc1C` (repeat unit) reads 161.00 °C.
`*Oc1ccc(C2(c3ccc(OC(*)=O)c(C)c3)CCCCC2)cc1C` (repeat unit) came in with a glass transition temperature of 137.50 °C.
With `*Oc1ccc(C2(c3ccc(OC(*)=O)cc3C)CC3CC2C2C4CCC(C4)C32)cc1C` (repeat unit), the glass transition temperature came to 232.00 °C.
To `*Oc1ccc(C2(c3ccc(OC(=O)CCC(*)=O)cc3)c3cc(N(C)C)ccc3-c3ccc([N+](=O)[O-])cc32)cc1` (repeat unit) belongs 215.00 °C.
The molecule `*Oc1ccc(C2(c3ccc(OC(=O)CCCC(*)=O)cc3)c3cc(N(C)C)ccc3-c3ccc([N+](=O)[O-])cc32)cc1` (repeat unit) had a glass transition temperature of 181.00 °C.
Consider `*c1ccc(-c2cc(C(C)(C)C)c(Oc3ccc(N4C(=O)c5ccc(-c6ccc7c(c6)C(=O)N(*)C7=O)cc5C4=O)cc3)c(C(C)(C)C)c2)cc1` (repeat unit), for which the glass transition temperature was found to be 381.50 °C.
`*c1ccc(-c2cc(C(C)(C)C)c(Oc3ccc(N4C(=O)c5ccc(Oc6ccc7c(c6)C(=O)N(*)C7=O)cc5C4=O)cc3)c(C(C)(C)C)c2)cc1` (repeat unit) registered a glass transition temperature of 342.00 °C.
In turn, `*c1ccc(-c2ccc(N3C(=O)c4ccc(-c5cccc6c5C(=O)N(*)C6=O)cc4C3=O)c(C)c2)cc1C` (repeat unit) registered a glass transition temperature of 384.00 °C.
In turn, `*c1ccc(-c2ccc(N3C(=O)c4ccc(Oc5ccc(Oc6ccc7c(c6)C(=O)N(*)C7=O)cc5)cc4C3=O)c(OC)c2)cc1OC` (repeat unit) gave a glass transition temperature of 274.00 °C.
`*c1ccc(C(C)(C)c2ccc(C(C)(C)c3ccc(N4C(=O)c5ccc(Oc6ccc7ccc(Oc8ccc9c(c8)C(=O)N(*)C9=O)cc7c6)cc5C4=O)cc3)cc2)cc1` (repeat unit) registered a glass transition temperature of 246.00 °C.
For `*c1ccc(C2C3C(=O)N(c4ccc(N5C(=O)C6ON(C)C(*)C6C5=O)cc4)C(=O)C3ON2C)cc1` (repeat unit), the glass transition temperature is 67.00 °C.
`*c1ccc(Cc2ccc(-n3nc(-c4ccccc4)cc3-c3cccc(-c4cc(-c5ccccc5)nn4*)c3)cc2)cc1` (repeat unit) registered a glass transition temperature of 225.00 °C.
As to `*c1ccc(Cc2ccc(-n3nccc3-c3ccc(-c4ccnn4*)cc3)cc2)cc1` (repeat unit), the glass transition temperature came to 202.00 °C.
Turning to `*c1ccc(Cc2ccc(S(*)(=O)=O)cc2)cc1` (repeat unit), the glass transition temperature came to 227.50 °C.
The molecule `*c1ccc(N(c2ccc(C#N)cc2)c2ccc(N3C(=O)c4ccc(-c5ccc6c(c5)C(=O)N(*)C6=O)cc4C3=O)cc2)cc1` (repeat unit) had a glass transition temperature of 358.00 °C.
The molecule `*c1ccc(N(c2ccc(C#N)cc2)c2ccc(N3C(=O)c4ccc(Oc5ccc6c(c5)C(=O)N(*)C6=O)cc4C3=O)cc2)cc1` (repeat unit) returned a glass transition temperature of 304.00 °C.
To `*c1ccc(NC(=O)Nc2ccc(NC(=O)Nc3ccc(-c4nc(C#N)c(C#N)nc4*)cc3)cc2)cc1` (repeat unit) belongs 248.70 °C; to `*c1ccc(Nc2ccc(C3(c4ccc(Nc5ccc(S(*)(=O)=O)cc5)c(C)c4)c4ccccc4-c4ccccc43)cc2C)cc1` (repeat unit), 269.00 °C; to `*c1ccc(Nc2ccc(C3(c4ccc(Nc5ccc(S(*)(=O)=O)cc5)cc4)c4ccccc4-c4ccccc43)cc2)cc1` (repeat unit), 221.00 °C.
To `*c1ccc2c(c1)C(=O)N(c1ccc(C(C)(C)c3ccc(C(C)(C)c4ccc(N5C(=O)c6ccc(C(*)(C(F)(F)F)C(F)(F)F)cc6C5=O)cc4)cc3)cc1)C2=O` (repeat unit) belongs 235.40 °C; to `*c1ccc2c(c1)C(=O)N(c1ccc(C(C)(C)c3ccc(N4C(=O)c5ccc(C(*)(C(F)(F)F)C(F)(F)F)cc5C4=O)cc3)cc1)C2=O` (repeat unit), 310.00 °C.
`*c1ccc2c(c1)C(=O)N(c1ccc(N(c3ccc(C#N)cc3)c3ccc(N4C(=O)c5ccc(C(*)(C(F)(F)F)C(F)(F)F)cc5C4=O)cc3)cc1)C2=O` (repeat unit) gave a glass transition temperature of 321.00 °C.

For the origin of these results see the PolyMetriX glass transition set.
